Test results taken from PubChem BioAssay (NCI).
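Five compound concentrations were applied to cells in 96-well plates for 48 hours; endpoints were derived by simple linear interpolation of the resulting dose-response curve. Here, GI50 denotes the concentration required for 50% inhibition of growth. At the TGI there is no net growth.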

How the values were obtained:
Assay in all cases: growth of human tumour cells (NCI), 48 h
786-0 renal = test system: 786-0 renal
A498 renal = test system: A498 renal
A549 NSCLC = test system: A549 NSCLC
ACHN renal = test system: ACHN renal
BT-549 breast = test system: BT-549 breast
CAKI-1 renal = test system: CAKI-1 renal
CCRF-CEM leukemia = test system: CCRF-CEM leukemia
COLO 205 colon = test system: COLO 205 colon
DU-145 prostate = test system: DU-145 prostate
EKVX NSCLC = test system: EKVX NSCLC
HCC-2998 colon = test system: HCC-2998 colon
HCT-116 colon = test system: HCT-116 colon
HCT-15 colon = test system: HCT-15 colon
HL-60(TB) leukemia = test system: HL-60(TB) leukemia
HOP-62 NSCLC = test system: HOP-62 NSCLC
HOP-92 NSCLC = test system: HOP-92 NSCLC
HS 578T breast = test system: HS 578T breast
HT29 colon = test system: HT29 colon
IGROV1 ovarian = test system: IGROV1 ovarian
K-562 leukemia = test system: K-562 leukemia
KM12 colon = test system: KM12 colon
LOX IMVI melanoma = test system: LOX IMVI melanoma
M14 melanoma = test system: M14 melanoma
MALME-3M melanoma = test system: MALME-3M melanoma
MCF7 breast = test system: MCF7 breast
MDA-MB-231 breast = test system: MDA-MB-231 breast
MDA-MB-435 = test system: MDA-MB-435
MDA-MB-468 breast = test system: MDA-MB-468 breast
MOLT-4 leukemia = test system: MOLT-4 leukemia
NCI-H226 lung = test system: NCI-H226 lung
NCI-H23 lung = test system: NCI-H23 lung
NCI-H460 lung = test system: NCI-H460 lung
NCI-H522 lung = test system: NCI-H522 lung
NCI/ADR-RES ovarian = test system: NCI/ADR-RES ovarian
OVCAR-3 ovarian = test system: OVCAR-3 ovarian
OVCAR-4 ovarian = test system: OVCAR-4 ovarian
OVCAR-5 ovarian = test system: OVCAR-5 ovarian
OVCAR-8 ovarian = test system: OVCAR-8 ovarian
PC-3 prostate = test system: PC-3 prostate
RPMI-8226 leukemia = test system: RPMI-8226 leukemia
RXF 393 renal = test system: RXF 393 renal
SF-268 CNS = test system: SF-268 CNS
SF-295 CNS = test system: SF-295 CNS
SF-539 CNS = test system: SF-539 CNS
SK-MEL-2 melanoma = test system: SK-MEL-2 melanoma
SK-MEL-28 melanoma = test system: SK-MEL-28 melanoma
SK-MEL-5 melanoma = test system: SK-MEL-5 melanoma
SK-OV-3 ovarian = test system: SK-OV-3 ovarian
SN12C renal = test system: SN12C renal
SNB-19 CNS = test system: SNB-19 CNS
SW-620 colon = test system: SW-620 colon
T-47D breast = test system: T-47D breast
TK-10 renal = test system: TK-10 renal
U251 CNS = test system: U251 CNS
UACC-257 melanoma = test system: UACC-257 melanoma
UACC-62 melanoma = test system: UACC-62 melanoma
UO-31 renal = test system: UO-31 renal

Clc1cccc(N/N=C/c2c[nH]c3ccc(Br)cc23)n1
GI50 (786-0 renal): 6.61 µM
TGI (786-0 renal): 20.3 µM
GI50 (A498 renal): 17 µM
TGI (A498 renal): 32.2 µM
GI50 (A549 NSCLC): 11.7 µM
TGI (A549 NSCLC): 26.3 µM
GI50 (ACHN renal): 6.73 µM
TGI (ACHN renal): 20.1 µM
GI50 (BT-549 breast): 296 nM
TGI (BT-549 breast): 12.3 µM
GI50 (CAKI-1 renal): 1290 nM
TGI (CAKI-1 renal): 12.2 µM
GI50 (CCRF-CEM leukemia): 231 nM
TGI (CCRF-CEM leukemia): 16 µM
GI50 (COLO 205 colon): 11.8 µM
TGI (COLO 205 colon): 24.2 µM
GI50 (DU-145 prostate): 8.12 µM
TGI (DU-145 prostate): 21 µM
GI50 (EKVX NSCLC): 1600 nM
TGI (EKVX NSCLC): 14.6 µM
GI50 (HCC-2998 colon): 4.07 µM
TGI (HCC-2998 colon): 14.3 µM
GI50 (HCT-116 colon): 4.36 µM
TGI (HCT-116 colon): 18 µM
GI50 (HCT-15 colon): 3.87 µM
TGI (HCT-15 colon): 15.3 µM
GI50 (HL-60(TB) leukemia): 2700 nM
TGI (HL-60(TB) leukemia): 23.9 µM
GI50 (HOP-62 NSCLC): 4.28 µM
TGI (HOP-62 NSCLC): 18.8 µM
GI50 (HOP-92 NSCLC): 1550 nM
TGI (HOP-92 NSCLC): 8.21 µM
GI50 (HS 578T breast): 2940 nM
TGI (HS 578T breast): 27.1 µM
GI50 (HT29 colon): 10.8 µM
TGI (HT29 colon): 24 µM
GI50 (IGROV1 ovarian): 349 nM
TGI (IGROV1 ovarian): 2590 nM
GI50 (K-562 leukemia): 2000 nM
TGI (K-562 leukemia): 29.6 µM
GI50 (KM12 colon): 2690 nM
TGI (KM12 colon): 9.62 µM
GI50 (LOX IMVI melanoma): 1220 nM
TGI (LOX IMVI melanoma): 11 µM
GI50 (M14 melanoma): 4 µM
TGI (M14 melanoma): 17.9 µM
GI50 (MALME-3M melanoma): 11.6 µM
TGI (MALME-3M melanoma): 24.5 µM
GI50 (MCF7 breast): 3.74 µM
TGI (MCF7 breast): 17 µM
GI50 (MDA-MB-231 breast): 1470 nM
TGI (MDA-MB-231 breast): 8.95 µM
GI50 (MDA-MB-435): 2600 nM
TGI (MDA-MB-435): 11.6 µM
GI50 (MDA-MB-468 breast): 4.42 µM
TGI (MDA-MB-468 breast): 16.6 µM
GI50 (MOLT-4 leukemia): 416 nM
TGI (MOLT-4 leukemia): 11.5 µM
GI50 (NCI-H226 lung): 416 nM
TGI (NCI-H226 lung): 18 µM
GI50 (NCI-H23 lung): 10.2 µM
TGI (NCI-H23 lung): 23.4 µM
GI50 (NCI-H460 lung): 3.52 µM
TGI (NCI-H460 lung): 15.2 µM
GI50 (NCI-H522 lung): 1010 nM
TGI (NCI-H522 lung): 11.9 µM
GI50 (NCI/ADR-RES ovarian): 3.08 µM
TGI (NCI/ADR-RES ovarian): 17.6 µM
GI50 (OVCAR-3 ovarian): 2110 nM
TGI (OVCAR-3 ovarian): 11.1 µM
GI50 (OVCAR-4 ovarian): 6.12 µM
TGI (OVCAR-4 ovarian): 23.9 µM
GI50 (OVCAR-5 ovarian): 10.2 µM
TGI (OVCAR-5 ovarian): 22.1 µM
GI50 (OVCAR-8 ovarian): 5.91 µM
TGI (OVCAR-8 ovarian): 26 µM
GI50 (PC-3 prostate): 1250 nM
TGI (PC-3 prostate): 14 µM
GI50 (RPMI-8226 leukemia): 2200 nM
TGI (RPMI-8226 leukemia): 20.4 µM
GI50 (RXF 393 renal): 1230 nM
TGI (RXF 393 renal): 8.11 µM
GI50 (SF-268 CNS): 1850 nM
TGI (SF-268 CNS): 15.3 µM
GI50 (SF-295 CNS): 7.12 µM
TGI (SF-295 CNS): 20.4 µM
GI50 (SF-539 CNS): 1600 nM
TGI (SF-539 CNS): 15 µM
GI50 (SK-MEL-2 melanoma): 4.85 µM
TGI (SK-MEL-2 melanoma): 19.5 µM
GI50 (SK-MEL-28 melanoma): 14.2 µM
TGI (SK-MEL-28 melanoma): 27.3 µM
GI50 (SK-MEL-5 melanoma): 10.3 µM
TGI (SK-MEL-5 melanoma): 22 µM
GI50 (SK-OV-3 ovarian): 2040 nM
TGI (SK-OV-3 ovarian): 16 µM
GI50 (SN12C renal): 695 nM
TGI (SN12C renal): 13 µM
GI50 (SNB-19 CNS): 10.2 µM
TGI (SNB-19 CNS): 21.8 µM
GI50 (SW-620 colon): 3.22 µM
TGI (SW-620 colon): 15.5 µM
GI50 (T-47D breast): 3.38 µM
TGI (T-47D breast): 20.3 µM
GI50 (TK-10 renal): 14 µM
TGI (TK-10 renal): 27.2 µM
GI50 (U251 CNS): 8.5 µM
TGI (U251 CNS): 23.6 µM
GI50 (UACC-257 melanoma): 12 µM
TGI (UACC-257 melanoma): 25.2 µM
GI50 (UACC-62 melanoma): 718 nM
TGI (UACC-62 melanoma): 18.1 µM
GI50 (UO-31 renal): 391 nM
TGI (UO-31 renal): 14.8 µM
